Test results published in PubChem BioAssay (NCI).
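Each compound was tested at five concentrations against cells in 96-well plates for 48 hours. GI50 marks 50% less growth. TGI marks complete inhibition of growth.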

tested on: UO-31 renal; assay: NCI-60 cell line screen, 48 h

Compound	GI50	TGI
CCN(C(=O)N1CCN(c2cc3c(cc2F)c(=O)c(C(=O)O)cn3C2CC2)CC1)c1nc(-c2ccc(Cl)cc2)cs1	0.986 µM	> 20.5 µM
CC(C)=CCC(O)C1=CC(=O)c2c(O)ccc(O)c2C1=O (stereo not given)	–	2.93 µM

tested on: SF-539 CNS; assay: NCI-60 cell line screen, 48 h

Compound	GI50	TGI
Cc1cc(I)cc(CN(CCCN(C)C)C(C)C)c1O	15.3 µM	29.1 µM
c1ccc(Sc2ncnc3ccccc23)cc1	15.9 µM	34.2 µM
CCN(C(=O)N1CCN(c2cc3c(cc2F)c(=O)c(C(=O)O)cn3C2CC2)CC1)c1nc(-c2ccc(Cl)cc2)cs1	1.02 µM	3.74 µM
CC(C)=CCC(O)C1=CC(=O)c2c(O)ccc(O)c2C1=O (stereo not given)	–	3.01 µM

tested on: M14 melanoma; assay: NCI-60 cell line screen, 48 h

Compound	GI50	TGI
Cc1cc(I)cc(CN(CCCN(C)C)C(C)C)c1O	16.2 µM	31 µM
c1ccc(Sc2ncnc3ccccc23)cc1	12.3 µM	27.6 µM
CCN(C(=O)N1CCN(c2cc3c(cc2F)c(=O)c(C(=O)O)cn3C2CC2)CC1)c1nc(-c2ccc(Cl)cc2)cs1	2.12 µM	> 100 µM
CC(C)=CCC(O)C1=CC(=O)c2c(O)ccc(O)c2C1=O (stereo not given)	–	2.52 µM

tested on: OVCAR-5 ovarian; assay: NCI-60 cell line screen, 48 h

Compound	GI50	TGI
Cc1cc(I)cc(CN(CCCN(C)C)C(C)C)c1O	19.7 µM	53.5 µM
c1ccc(Sc2ncnc3ccccc23)cc1	19.2 µM	37.2 µM
CCN(C(=O)N1CCN(c2cc3c(cc2F)c(=O)c(C(=O)O)cn3C2CC2)CC1)c1nc(-c2ccc(Cl)cc2)cs1	2.62 µM	> 100 µM
CC(C)=CCC(O)C1=CC(=O)c2c(O)ccc(O)c2C1=O (stereo not given)	–	3.89 µM

tested on: NCI-H522 lung; assay: NCI-60 cell line screen, 48 h

Compound	GI50	TGI
Cc1cc(I)cc(CN(CCCN(C)C)C(C)C)c1O	16 µM	31.4 µM
c1ccc(Sc2ncnc3ccccc23)cc1	7.19 µM	29.1 µM
CCN(C(=O)N1CCN(c2cc3c(cc2F)c(=O)c(C(=O)O)cn3C2CC2)CC1)c1nc(-c2ccc(Cl)cc2)cs1	1.8 µM	> 26.5 µM
CC(C)=CCC(O)C1=CC(=O)c2c(O)ccc(O)c2C1=O (stereo not given)	–	0.694 µM

tested on: DU-145 prostate; assay: NCI-60 cell line screen, 48 h

Compound	GI50	TGI
Cc1cc(I)cc(CN(CCCN(C)C)C(C)C)c1O	16.1 µM	29.6 µM
c1ccc(Sc2ncnc3ccccc23)cc1	12 µM	24.9 µM
CCN(C(=O)N1CCN(c2cc3c(cc2F)c(=O)c(C(=O)O)cn3C2CC2)CC1)c1nc(-c2ccc(Cl)cc2)cs1	1.83 µM	> 100 µM
CC(C)=CCC(O)C1=CC(=O)c2c(O)ccc(O)c2C1=O (stereo not given)	–	2.5 µM

tested on: HOP-92 NSCLC; assay: NCI-60 cell line screen, 48 h

Compound	GI50	TGI
Cc1cc(I)cc(CN(CCCN(C)C)C(C)C)c1O	5.77 µM	31.9 µM
c1ccc(Sc2ncnc3ccccc23)cc1	4.49 µM	27.5 µM
CCN(C(=O)N1CCN(c2cc3c(cc2F)c(=O)c(C(=O)O)cn3C2CC2)CC1)c1nc(-c2ccc(Cl)cc2)cs1	0.825 µM	4.8 µM

tested on: HL-60(TB) leukemia; assay: NCI-60 cell line screen, 48 h

Compound	GI50	TGI
Cc1cc(I)cc(CN(CCCN(C)C)C(C)C)c1O	18.2 µM	36 µM
c1ccc(Sc2ncnc3ccccc23)cc1	6.37 µM	27.9 µM
CCN(C(=O)N1CCN(c2cc3c(cc2F)c(=O)c(C(=O)O)cn3C2CC2)CC1)c1nc(-c2ccc(Cl)cc2)cs1	0.669 µM	1.77 µM
CC(C)=CCC(O)C1=CC(=O)c2c(O)ccc(O)c2C1=O (stereo not given)	–	0.0659 µM

tested on: SW-620 colon; assay: NCI-60 cell line screen, 48 h

Compound	GI50	TGI
Cc1cc(I)cc(CN(CCCN(C)C)C(C)C)c1O	17.3 µM	31.6 µM
c1ccc(Sc2ncnc3ccccc23)cc1	14.6 µM	34.8 µM
CCN(C(=O)N1CCN(c2cc3c(cc2F)c(=O)c(C(=O)O)cn3C2CC2)CC1)c1nc(-c2ccc(Cl)cc2)cs1	1.83 µM	> 100 µM
CC(C)=CCC(O)C1=CC(=O)c2c(O)ccc(O)c2C1=O (stereo not given)	–	3.3 µM

tested on: MCF7 breast; assay: NCI-60 cell line screen, 48 h

Compound	GI50	TGI
Cc1cc(I)cc(CN(CCCN(C)C)C(C)C)c1O	18.8 µM	36 µM
c1ccc(Sc2ncnc3ccccc23)cc1	17.8 µM	67.9 µM
CCN(C(=O)N1CCN(c2cc3c(cc2F)c(=O)c(C(=O)O)cn3C2CC2)CC1)c1nc(-c2ccc(Cl)cc2)cs1	2.97 µM	> 100 µM
CC(C)=CCC(O)C1=CC(=O)c2c(O)ccc(O)c2C1=O (stereo not given)	–	2.11 µM

tested on: HCT-15 colon; assay: NCI-60 cell line screen, 48 h

Compound	GI50	TGI
Cc1cc(I)cc(CN(CCCN(C)C)C(C)C)c1O	17.5 µM	39.5 µM
c1ccc(Sc2ncnc3ccccc23)cc1	8.03 µM	37.2 µM
CCN(C(=O)N1CCN(c2cc3c(cc2F)c(=O)c(C(=O)O)cn3C2CC2)CC1)c1nc(-c2ccc(Cl)cc2)cs1	0.967 µM	> 100 µM
CC(C)=CCC(O)C1=CC(=O)c2c(O)ccc(O)c2C1=O (stereo not given)	–	0.526 µM

tested on: U251 CNS; assay: NCI-60 cell line screen, 48 h

Compound	GI50	TGI
Cc1cc(I)cc(CN(CCCN(C)C)C(C)C)c1O	18.5 µM	36.1 µM
c1ccc(Sc2ncnc3ccccc23)cc1	12.9 µM	31.8 µM
CCN(C(=O)N1CCN(c2cc3c(cc2F)c(=O)c(C(=O)O)cn3C2CC2)CC1)c1nc(-c2ccc(Cl)cc2)cs1	1.15 µM	29.7 µM
CC(C)=CCC(O)C1=CC(=O)c2c(O)ccc(O)c2C1=O (stereo not given)	–	4.74 µM

tested on: OVCAR-8 ovarian; assay: NCI-60 cell line screen, 48 h

Compound	GI50	TGI
Cc1cc(I)cc(CN(CCCN(C)C)C(C)C)c1O	31.6 µM	> 100 µM
c1ccc(Sc2ncnc3ccccc23)cc1	19.8 µM	75.9 µM
CCN(C(=O)N1CCN(c2cc3c(cc2F)c(=O)c(C(=O)O)cn3C2CC2)CC1)c1nc(-c2ccc(Cl)cc2)cs1	1.31 µM	> 100 µM
CC(C)=CCC(O)C1=CC(=O)c2c(O)ccc(O)c2C1=O (stereo not given)	–	3.35 µM

tested on: SNB-75 CNS; assay: NCI-60 cell line screen, 48 h

Compound	GI50	TGI
Cc1cc(I)cc(CN(CCCN(C)C)C(C)C)c1O	16.6 µM	36.3 µM
c1ccc(Sc2ncnc3ccccc23)cc1	12.1 µM	35 µM
CCN(C(=O)N1CCN(c2cc3c(cc2F)c(=O)c(C(=O)O)cn3C2CC2)CC1)c1nc(-c2ccc(Cl)cc2)cs1	1.37 µM	9.32 µM
CC(C)=CCC(O)C1=CC(=O)c2c(O)ccc(O)c2C1=O (stereo not given)	–	11.1 µM

tested on: UACC-62 melanoma; assay: NCI-60 cell line screen, 48 h

Compound	GI50	TGI
Cc1cc(I)cc(CN(CCCN(C)C)C(C)C)c1O	15.2 µM	33.7 µM
c1ccc(Sc2ncnc3ccccc23)cc1	9.06 µM	23.5 µM
CCN(C(=O)N1CCN(c2cc3c(cc2F)c(=O)c(C(=O)O)cn3C2CC2)CC1)c1nc(-c2ccc(Cl)cc2)cs1	1.13 µM	3.55 µM
CC(C)=CCC(O)C1=CC(=O)c2c(O)ccc(O)c2C1=O (stereo not given)	–	3.41 µM
